# Reference: patent US7989420B2, “Smooth muscle relaxation” (New York Medical College, priority 2006, dated 2011)
# What was measured:
# endothelium-rubbed aorta = test: Protoporphyrin IX fluorescence in aorta of rats treated with ALA in vivo; parameters: species or system rat; conditions: single dose 60 mg/kg ALA i.p., 24 hours after treatment, vs saline-injected rats
# Experimental: The rats were pretreated with 60 mg/kg ALA or with a saline vehicle (i.p.). After 24 hours they were anesthetized with 50 mg/kg sodium pentobarbital and the aorta was removed for in vitro studies. Isolated aortic rings were studied for changes in protoporphyrin IX fluorescence and force under the same conditions similar to those used for bovine pulmonary arteries described above, except that 1 gram of passive force was used.
# sGC = molecular target: T1, sGC (Bos taurus, UniProt P16068); test: sGC activity in BPA homogenates (cGMP by ELISA); assay type: biochemical, bovine; parameters: Guanylate cyclase activity of homogenates of BPA was measured by enzyme immunoassay; from tissue; host or cells: BPA (pulmonary artery rings, organ cultured) homogenate; conditions: organ culture with 100 μM ALA and/or 100 μM Fe
# T1 sequence (P16068 1-619): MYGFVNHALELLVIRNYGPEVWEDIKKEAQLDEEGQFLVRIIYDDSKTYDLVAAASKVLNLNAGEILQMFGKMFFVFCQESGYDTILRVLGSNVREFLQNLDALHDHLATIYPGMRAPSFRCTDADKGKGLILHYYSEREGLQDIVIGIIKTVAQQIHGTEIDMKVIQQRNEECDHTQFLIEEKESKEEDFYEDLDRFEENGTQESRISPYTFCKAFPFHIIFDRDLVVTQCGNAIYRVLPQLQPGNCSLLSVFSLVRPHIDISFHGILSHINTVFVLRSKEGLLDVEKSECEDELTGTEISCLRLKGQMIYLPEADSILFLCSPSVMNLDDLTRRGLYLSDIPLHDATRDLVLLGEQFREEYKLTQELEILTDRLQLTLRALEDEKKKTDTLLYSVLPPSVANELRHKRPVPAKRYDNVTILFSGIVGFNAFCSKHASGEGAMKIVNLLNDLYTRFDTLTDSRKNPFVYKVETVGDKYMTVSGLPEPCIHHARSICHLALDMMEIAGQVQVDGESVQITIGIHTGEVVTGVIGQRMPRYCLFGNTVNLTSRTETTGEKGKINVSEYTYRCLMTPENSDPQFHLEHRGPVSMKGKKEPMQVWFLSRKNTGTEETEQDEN
# T1 sequence (P19687 1-691 partner): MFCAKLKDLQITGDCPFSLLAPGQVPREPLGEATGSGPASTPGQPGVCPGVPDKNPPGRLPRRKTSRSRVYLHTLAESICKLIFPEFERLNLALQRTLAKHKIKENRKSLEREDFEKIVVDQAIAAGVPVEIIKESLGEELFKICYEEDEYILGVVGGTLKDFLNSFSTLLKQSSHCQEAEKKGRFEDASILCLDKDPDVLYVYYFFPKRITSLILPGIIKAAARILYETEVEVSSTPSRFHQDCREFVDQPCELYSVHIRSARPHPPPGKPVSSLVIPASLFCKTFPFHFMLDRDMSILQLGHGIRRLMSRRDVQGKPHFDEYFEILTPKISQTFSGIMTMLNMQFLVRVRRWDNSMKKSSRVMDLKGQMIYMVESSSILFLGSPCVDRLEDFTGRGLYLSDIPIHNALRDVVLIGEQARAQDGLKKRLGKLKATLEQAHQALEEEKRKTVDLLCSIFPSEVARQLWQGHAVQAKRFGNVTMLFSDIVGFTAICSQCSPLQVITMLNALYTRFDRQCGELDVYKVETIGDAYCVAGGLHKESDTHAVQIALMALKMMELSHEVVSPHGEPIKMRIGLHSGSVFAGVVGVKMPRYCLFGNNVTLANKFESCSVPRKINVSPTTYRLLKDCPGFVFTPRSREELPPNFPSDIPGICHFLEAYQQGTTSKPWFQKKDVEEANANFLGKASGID
# Experimental: Guanylate cyclase activity of homogenates of BPA was measured by enzyme immunoassay of the amounts of cGMP generated. Briefly, BPA were pulverized in liquid nitrogen and homogenized in MOPS buffer 1:3 wt to buffer ratio at 5° C. Reaction mixture (0.2 ml final volume) contained 20 mM MOPS-KOH (pH 7.4), 0.1 mM GTP, 2 mM MgCl2, 0.3 mM of the phosphodiesterase inhibitor 3-Isobutyl-1-methylxanthine, a GTP-regenerating system consisting of 10 mM phosphocreatine and 150 U/ml creatine phosphokinase, and 0.1 ml of homogenate (11, 15), and test agents, as indicated. Assays of sGC activity were initiated by the addition of BPA homogenate. Incubations were conducted for 10 min at 37° C., and they were terminated by the addition of 0.1 ml of preheated 12 mM EDTA. This was followed by boiling the assay mixtures for 10 min and a subsequent addition of 5% trichloroacetic acid. The precipitate was removed by centrifugation and the supernatant was washed three times with water-saturated diethyl ether. Residual ether was removed by incubation at 70° C. for 5 minutes, prior to measurement of cGMP by ELISA (Cayman), as described in the manual supplied by manufacturer of the ELISA kit.
# [1] = tested on: bovine pulmonary arteries (BPA); test: Protoporphyrin IX-associated tissue fluorescence in organ cultured BPA rings; assay type: cell-based; conditions: for BPA fluorescence: 100 μM ALA without or with 100 μM deferoxamine
# Experimental: Organoid Culture Isolated Arteries for Heme Modulation. Intralobar BPA were isolated from slaughterhouse-derived bovine calf lungs, cleaned from surrounding tissue, and placed in 37° C. Dulbecco's Modified Eagle Medium (DMEM) containing 10% fetal bovine serum, penicillin, streptomycin, and fungizone (complete media). The arteries were isolated and cut into rings ˜2 mm in diameter and width, and the endothelium was removed by gentle rubbing of the lumen. Various compounds (i.e. ALA, FeSO4(Fe), deferoxamine) were added as described in the Results to various experimental groups, and these arteries were organ cultured overnight for 24 h in complete media in a 37° C.-5% CO2 incubator. Preliminary experiments on the time course for detection protoporphyrin IX accumulation and the effects of organ culture with doses of ALA in the 10-100 μM concentration range on contractile function, and minimizing the duration of organ culture were considerations that contributed to selecting the 24 h culture period used in this study.
# Determination Changes in Protoporphyrin 1× and Heme Levels. Methods for the detection of protoporphyrin IX tissue fluorescence developed for the detection in cancerous cells with tissue depths of up to several millimeters (27) were adapted for detecting changes in the endogenous levels of protoporphyrin IX in BPA rings which were organ cultured with ALA. When excited with light in the regions of 505 and 540 nm, protoporphyrin IX has an emission in the region of 635 nm. […] Increases in protoporphyrin IX were measured using an excitation wavelength of 528±20 nm and emission of 620±40 nm in intact vessels. Ring segments of approximately equal size (˜4 mm in diameter and length) were centered on the bottom of the ˜6 mm diameter wells of a 96 well microplate with 200 μl of Krebs containing with 10 mM Hepes buffer (pH 7.4), and the fluorescence was measured from the bottom surface of the plate using BIOTEK fluorescent microplate reader (Model FLx800i). Data are reported in the arbitrary fluorescence units measured (AU), after subtraction of the low levels of background fluorescence observed in the absence of BPA.
smiles,measurement,setting,value
"NCC(=O)CCC(=O)O [ALA, δ-aminolevulinic acid]",protoporphyrin IX fluorescence in endothelium-rubbed aorta,endothelium-rubbed aorta,increased in protoporphyrin IX fluorescence
same,BPA homogenate sGC activity,sGC,increase in BPA homogenate sGC activity
same,fluorescence potentially originating from protoporphyrin IX,"[1]; 10 μM ALA, 24 h organ culture",did not cause a detectable increase in fluorescence
same,increase in fluorescence over the background fluorescence of BPA,"[1]; 50 μM and 100 μM ALA, 24 h organ culture",up to 2 fold
same,BPA fluorescence,[1]; after 8 h of organ culture,1015±79 AU
same,BPA fluorescence,[1]; after 24 h of organ culture,1658±122 AU
same,concentration of protoporphyrin IX solution producing similar fluorescence,[1]; increase in BPA fluorescence caused by 100 μM ALA,~3 µM
same,tissue fluorescence potentially originating from protoporphyrin IX,"[1]; organ culture with 100 μM ALA, after 16 and 24 h of incubation",increase in tissue fluorescence
